Assays:
[1] = target: T1, S100P (Homo sapiens, UniProt P25815); test: S100P binding to cromolyn using affinity chromatography; conditions: cromolyn coupled to AF-TOYOPEARL; EGTA elution; control column did not retain
T1 construct: full-length human S100P cDNA (NM_005980) was cloned into the pTrcHis2 vector; His tag; made in house
Description: Cromolyn was coupled with the amino group of AF-amino TOYOPEARL to generate a cromolyn affinity column. A negative control column was prepared by blocking the amino group. Purified S100P was added to both columns, which were then washed extensively. Protein was eluted from the columns using EGTA and subjected to sodium dodecylsulfate polyacrylamide gel electrophoresis and staining with Commassie blue. Lane 1 of the gel is the molecular weight marker; lane 2 is the eluate from the control column; and lane 3 is the eluate from the cromolyn column (arrow, S100P). The gel shown is one of three independent experiments.
Cromolyn was coupled to AF-TOYOPEARL resin as described in Shishibori, et al., Three distinct anti-allergic drugs, amlexanox, cromolyn and tranilast, bind to S100A 12 and S100A13 of the S100 protein family; Biochem. J. 1999 Mar. 15; 338 (Pt 3):583-9. Briefly, 0.1 grams of cromolyn was dissolved in 1 mL of N,N-dimethylformamide and added to 7 mL (5 grams wet mass) AF-TOYOPEARL. Next, 0.5 grams of N-ethyl-N-(3-dimethylaminopropyl) carbodiimide hydrochloride, suspended in 10 mL of N,N-dimethylformamide, was added to the cromolyn+AF-TOYOPEARL slurry. The pH was adjusted to 5.0, and the slurry was incubated with gentle shaking for 48 hours at 25° C. As a negative control, a column was prepared by blocking the amino group of AF-TOYOPEARL with sodium acetate and acetic anhydride. […]

[2] = target: T2, S100P and RAGE (Homo sapiens, UniProt P25815); test: Co-immunoprecipitation of S100P and RAGE from BxPC-3 cell lysates; type: binding; conditions: cromolyn 100 μM
T2 construct: endogenous in cells; host or cells: BxPC-3 pancreatic adenocarcinoma cell lysate
T2 sequence (P25815 1-95): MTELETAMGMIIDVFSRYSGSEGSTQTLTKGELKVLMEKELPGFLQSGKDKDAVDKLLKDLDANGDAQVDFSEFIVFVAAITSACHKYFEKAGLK
Description: Receptor for advanced glycation end products (RAGE) was identified in the immunoprecipitates by immunoblotting with a goat polyclonal anti-RAGE antibody and anti-S100P as an internal control. In the lower panel, one representative blot and densitometric analysis (means and 95% confidence intervals [CIs]) of three independent experiments is shown. *P<0.001, versus IP α-S100P without cromolyn.
For co-immunoprecipitation experiments, BxPC-3 cell lysates were incubated in the absence or presence of cromolyn (100 μM) at 4° C. overnight. S100P was immunoprecipitated using a mouse monoclonal anti-S100P antibody (Transduction Laboratories, San Diego, Calif.) for 6 hours at 4° C. and IgG-immobilized beads (Pierce Biotechnology, Inc. Rockford, Ill.). Antibody-associated proteins were electrophoresed on 10% polyacrylamide gels and electrophoretically transferred to nitrocellulose membranes. Membranes were blocked in PBS/5% milk overnight at 4° C. RAGE was detected using a goat polyclonal anti-RAGE antibody (1:200, Santa Cruz, Santa Cruz, Calif.), and S100P was detected using a goat polyclonal anti-S100P antibody (1:50, R & D systems, Minneapolis, Minn.) by immunoblotting as described in Arumugam, et al., S100P stimulates cell proliferation and survival via receptor for activated glycation end products (RAGE); J. Biol. Chem. 2004 Feb. 13; 279(7):5059-65. Briefly, membranes were incubated in primary antibody for 1 hour at room temperature followed by incubation with horseradish peroxidase-labeled secondary antibody for 30 minutes at room temperature. After a thorough wash in TBS-T buffer (1M Tris-HCL pH 8.3, 3M NaCl, 0.1% Tween-20), antibody-protein complexes were detected by using a chemiluminescent substrate (GE Healthcare Bio-Sciences Corp., Piscataway, N.J.). The intensity of the band was estimated (as density units) using densitometry (GS-250 Molecular Imaging System, Bio-Rad Laboratories, Richmond, Calif.). The experiment was repeated three times.

[3] = tested on: MPanc-96 cells; test: MPanc-96 cell apoptosis by flow cytometry, 72 hours; type: cell-based, human; conditions: 100 and 1000 nM, with or without gemcitabine 10 μM
Description: FIG. 11 compares the effects of cromolyn and C5 alone and in combination with gemcitabine on MPanc-96 cell apoptosis. MPanc-96 cells were treated with cromolyn or C5 (100 and 1000 nM) with (+) or without (−) gemcitabine (10 μM). Apoptosis was analyzed after 72 hours by flow cytometry.

[4] = tested on: SKOV3 ovarian cells; test: SKOV3 ovarian cell viability with taxol; type: cell-based; conditions: taxol 5 μM, cromolyn 10 μM, 48 hours
Description: SKOV3 ovarian cells were plated and treated with taxol (5 μM) either in the presence or absence of cromolyn (10 μM) for 48 hours. Cell viability was analyzed after 48 hours. *, P<0.05.

S100P retained by cromolyn affinity column [1]: retained S100P
co-immunoprecipitation of S100P and RAGE, difference control versus cromolyn [2]: 25640 density units
total amount of S100P immunoprecipitated [2]: no effect
co-immunoprecipitation of S100P and RAGE, mean ([2]; control mean=34040): 8410 density units
SMILES: O=C(O)c1cc(=O)c2c(OCC(O)COc3cccc4oc(C(=O)O)cc(=O)c34)cccc2o1 [cromolyn, disodium 1,3-bis[(2′-carboxylatochromon-5′-yl)oxy]-2-hydroxypropane]
MPanc-96 cell viability [3]: inhibit MPanc-96 cell viability
cell killing effect of taxol on ovarian cancer cells [4]: increased the cell killing effect of taxol

Reference: patent publication US8252807B2, “Methods of inhibiting the interaction between S100 and the receptor for advanced glycation end-products” (Board of Regents, The University of Texas System, priority 2007, dated 2012)
